Experiment [1] addresses T1, CCK receptor (brain) (Cavia porcellus, UniProt H0VZC5).
T1 construct: the cortex was removed and homogenized in 25 mL ice-cold 0.32M sucrose; from tissue; host or cells: cortex of male Hartley guinea pigs (P2 membrane pellet)
T1 sequence (H0VZC5 1-426): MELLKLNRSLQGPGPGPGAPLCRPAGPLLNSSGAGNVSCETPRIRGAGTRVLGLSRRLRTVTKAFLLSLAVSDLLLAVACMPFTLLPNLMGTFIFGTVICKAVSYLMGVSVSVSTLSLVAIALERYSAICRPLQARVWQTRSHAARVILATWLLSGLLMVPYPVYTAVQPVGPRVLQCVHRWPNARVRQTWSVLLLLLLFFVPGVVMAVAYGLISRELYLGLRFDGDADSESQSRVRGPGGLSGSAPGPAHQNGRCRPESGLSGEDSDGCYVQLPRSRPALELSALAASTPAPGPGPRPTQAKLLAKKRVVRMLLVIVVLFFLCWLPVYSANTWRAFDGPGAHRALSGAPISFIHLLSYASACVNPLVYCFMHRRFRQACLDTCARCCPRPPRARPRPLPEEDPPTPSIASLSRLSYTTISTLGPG
Nature of the experiment: CCK Receptor Binding (Brain), inhibition of 125I-CCK-8 binding. The arrangement: species or system guinea pig (male Hartley). The conditions noted are these: guinea pig cortex membranes, 50 pM 125I-CCK-8, pH 6.5, 25° C., 2 hours. How it is done: CCK-8 sulphated was radiolabelled and the binding was performed according to the description for the pancreas method with minor modifications.
Male Hartley guinea pigs (300-500 g) were sacrificed by decapitation and the cortex was removed and homogenized in 25 mL ice-cold 0.32M sucrose. The homogenates were centrifuged at 1000 g for 10 minutes and the resulting supernatant was recentrifuged at 20,000 g for 20 minutes. The P2 pellet was resuspended in binding assay buffer (20mM HEPES, 5 mM MgCl2, 0.25 mg/ml bacitracin, 1 mM EGTA pH 6.5 at 25° C.), using a Teflon (trademark) homogenizer (5 strokes at 500 rpm) to give a final concentration of 10 mg original wet weight/1.2 ml buffer. For the binding assay, 50 μl of buffer (for total binding) or unlabelled CCK-8 sulphated to give a final concentration of 1 μM (for nonspecific binding) or the compounds of Formula I (for determination of inhibition of ^125 I-CCK-8 binding) and 50 μl of 500 pM ^125 I-CCK-8 (i.e. final concentration of 50 pM) were added to 400 μl of the membrane suspensions in microfuge tubes. All assays were run in duplicate. The reaction mixtures were incubated at 25° C. for 2 hours and then the reaction was terminated by rapid filtration (Brandell 24 well cell harvester) on Whatman GF/C filters with 3×5 ml washes of cold 100 mM NaCl. The radioactivity on the filters was counted with a LKB gamma counter.
Drug displacement studies were performed with at least 10 concentrations of compounds of Formula I and the IC50 values were determined by regression analysis IC50 refers to the concentration of the compound required to inhibit 50% of specific binding of ^125 I-CCK-8.

The target in experiment [2] is T2, CCK receptor (pancreas) (Rattus norvegicus, UniProt P30551).
T2 construct: The whole pancreas was dissected free of fat tissue and was homogenized; from tissue; host or cells: pancreas of male Sprague-Dawley rats (membrane homogenate)
T2 sequence (P30551 1-444): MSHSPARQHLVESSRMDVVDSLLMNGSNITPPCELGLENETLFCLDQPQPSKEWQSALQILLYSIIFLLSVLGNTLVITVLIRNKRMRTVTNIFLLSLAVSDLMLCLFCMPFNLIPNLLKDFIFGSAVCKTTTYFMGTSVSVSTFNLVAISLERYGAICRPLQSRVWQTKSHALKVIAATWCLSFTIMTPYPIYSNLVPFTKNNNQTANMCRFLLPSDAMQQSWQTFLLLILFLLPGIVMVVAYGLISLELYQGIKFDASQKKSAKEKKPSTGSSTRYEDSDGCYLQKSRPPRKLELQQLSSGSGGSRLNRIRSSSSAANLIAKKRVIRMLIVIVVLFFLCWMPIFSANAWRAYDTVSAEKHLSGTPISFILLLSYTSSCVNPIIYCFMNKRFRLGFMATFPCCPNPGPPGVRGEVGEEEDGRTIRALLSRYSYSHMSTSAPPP
Kind of experiment: CCK Receptor Binding (Pancreas), inhibition of 125I-CCK-8 binding. On the set-up: species or system rat (male Sprague-Dawley). How it is done:
Male Sprague-Dawley rats (150-200 g) were sacrificed by decapitation. The whole pancreas was dissected free of fat tissue and was homogenized in 25 volumes of ice-cold 10 mMN-2-hydroxyethyl-piperazine-N'-2-ethane sulphonic acid (HEPES) buffer with 0.1% soya bean trypsin inhibitor (pH 7.4 at 25° C.) with a Kinematica Polytron. The homogenates were centrifuged at 47,800 g for 10 min. Pellets were resuspended in 10 volumes of binding assay buffer (20mM (HEPES)), 1 mM ethylene glycol-bis-(β-aminoethylether-N,N'-tetraacetic acid) (EGTA), 5mM MgCl2, 150 mM NaCl, bacitracin 0.25 mg/ml, soya bean trypsin inhibitor 0.1 mg/ml, and bovine serum albumin 2 mg/ml pH 6.5 at 25° C.) using a Teflon (trademark) homogenizer, 15 strokes at 500 rpm. The homogenate was further diluted in binding assay buffer to give a final concentration of 0.5 mg original wet weight/1 ml buffer. […] All assays were run in duplicate. The reaction mixtures were incubated at 25° C. for 2 hours and the reaction terminated by rapid filtration (Brandell 24 well cell harvester) over Whatman GF/C filters, washing 3×4 mls with ice-cold 100 Mm NaCl. The radioactivity on the filters was counted with a LKB gamma counter.

Where [3] appears, read: rat pancreas membranes, 50 pM 125I-CCK-8, pH 6.5, 25° C., 2 hours, read-out: CCK RECEPTOR BINDING RESULTS IC50, 125I-CCK Pancreas.

Among the data in patent publication US5410049A, “Benzodiazepine derivatives, compositions containing them and their use in therapy” (Merck Sharpe & Dohme Ltd., priority 1991, dated 1995) are IC50 values, retold here.

Where two headings read alike, the source gives them in different places.

As for `CN1C(=O)C(NC(=O)Nc2cccc(C3=C(O)CSC3=O)c2)N=C(C2CCCCC2)c2ccccc21` (racemic) [Example 1, N-[3(R,S)-5-Cyclohexyl-2,3,dihydro-1-methyl-2-oxo-1H-1,4-benzodiazepin-3-yl]N', [3-(2,5,dihydro-4-hydroxy-2-oxothien,3-yl)phenyl]urea], the half-inhibitory concentration (IC50) in experiment [1] is 3.9 nM; in experiment [2] (setting [3]), 13 nM.

With `CN1C(=O)C(NC(=O)Nc2cccc(C3=C(O)CNC3=O)c2)N=C(C2CCCCC2)c2ccccc21` (racemic) [Example 2, N-[3(R,S)-5-Cyclohexyl-2,3-dihydro-1-methyl-2-oxo-1H-1,4-benzodiazepin-3-yl]N'-[3-(2,5-dihydro-4-hydroxy-2-oxopyrrol-3-yl)phenyl]urea], the IC50 in experiment [1] is 2.9 nM; in experiment [2] (setting [3]) it was 7.5 nM.

`CN1CC(O)=C(c2cccc(NC(=O)NC3N=C(C4CCCCC4)c4ccccc4N(C)C3=O)c2)C1=O` (racemic) [Example 4, N-[3(R,S)-5-Cyclohexyl-2,3-dihydro-1-methyl-2-oxo-1H-1,4-benzodiazepin-3-yl]N'-[3-(2,5-dihydro-4-hydroxy-N-methyl-2-oxopyrrol-3-yl)phenyl]urea]: the IC50 stood at 6.3 nM in experiment [1] and 56 nM in experiment [2] (setting [3]).

On to `CN1C(=O)[C@H](NC(=O)Nc2cccc(C3=C(O)CNC3=O)c2)N=C(c2ccccc2)c2ccccc21` [Example 3, N-[3(R)-2,3-Dihydro-1-methyl-2-oxo-5-phenyl-1H-1,4-benzodiazepin-3-yl]N'-[3-(2,5-dihydro-4-hydroxy-2-oxopyrrol-3-yl)phenyl]urea], for which the figures for the IC50 in experiment [1] and in experiment [2] were 16 nM and above 3000 nM, respectively.

Turning to `CN1CC(O)=C(c2cccc(NC(=O)N[C@@H]3N=C(C4CCCCC4)c4ccccc4N(C)C3=O)c2)C1=O` [Example 5, N-[3(R)-5-Cyclohexyl-2,3-dihydro-1-methyl-2-oxo-1H-1,4-benzodiazepin-3-yl]N'-[3-(2,5-dihydro-4-hydroxy-N-methyl-2-oxopyrrol-3-yl)phenyl] urea], the figures for the IC50 in experiment [1] and in experiment [2] (setting [3]) were 2.5 nM and 280 nM, respectively.

For the compound `CN1C(=O)[C@H](NC(=O)Nc2cccc(C3=C(O)CNC3=O)c2)N=C(C2CCCCC2)c2ccccc21` [Example 6, N-[3(R)-5-Cyclohexyl-2,3-dihydro-1-methyl-2-oxo-1H-1,4-benzodiazepin-3-yl]N'-[3-(2,5-dihydro-4-hydroxy-2oxopyrrol-3-yl)phenyl]urea], the IC50 in experiment [1] stood at 0.67 nM; in experiment [2] (setting [3]), 110 nM.

For orientation: IC50 means the concentration that gives 50% inhibition.
